# According to US6166045A, “Torasemide of modification III” (Roche Diagnostics GmbH, priority 1998, dated 2000):
# Read-outs that look alike come from different tables or passages of the source.
# How the values were obtained:
# [1] = Serum concentration of torasemide in rats after oral administration; assay type: in vivo, Wistar rat; settings: male rats (FIG. 1); for Serum concentration compared with modification I: oral 3 mg per kilogram
# Procedure: FIG. 1 is a plot of serum concentration levels in male rats of torasemide of modification I and modification III versus time after oral administration; and FIG. 2 is similar to FIG. 1, but reflects the serum concentrations in female rats. […] Therefore, both genders were tested to determine the concentration of torasemide in serum against the time after administration. The dose of torasemide was 3 mg per kilogram, administered orally. FIG. 1 is a graph illustrating the concentration in the serum of male rats of torasemide, as a result of administering modification I and modification III. FIG. 2 is a representation of the concentration of torasemide versus time after administration for the serum of female rats, treated the same as the male rats of FIG. 1.
# [2] = Storage stability of the crystal modification; assay type: physicochemical; settings: storage stable: tablet form, ambient conditions, less than 5% changing into another crystalline form over six months
# [3] = Heat of fusion / heat of transition (DSC); assay type: physicochemical; settings: for Heat of fusion ± 95% - C.B.: heating rate 5K min^-1
# Heat of solution = assay type: physicochemical; settings: in I-butanol at 20° C.
# Procedure: Relevant data of the two most important crystal forms (modification I and III) of torasemide are summarized in Table 1. | Heat of solution (kJ mol^-1) in I-butanol at 20° C. 36.1
# Diuretic effect = settings: in vivo
# [4] = Water content after storing in relative humidity of 92% at 25° C.; assay type: physicochemical; settings: 92% relative humidity, Mod. III depending on particle size
# Procedure: Relevant data of the two most important crystal forms (modification I and III) of torasemide are summarized in Table 1. | Water content (%) after storing in relative 0.2 1.2 (depending | humidity of 92% at 25° C. on particle size
# True density = assay type: physicochemical
# Procedure: One aspect of the present invention involves pure torasemide of modification III. It is believed that pure torasemide of modification III was previously unknown to the art. Torasemide of modification III can be characterized by a melting point of 155 to 158° C. (thermomicroscopy) and a true density of 1.302±0.009 g cm^-3 (versus 1.363±0.001 g cm^3 for modification I). In a preferred embodiment, the torasemide of modification III is pure. This term "pure" means that the torasemide contains less than about 1% of modification I and/or II, and less in any event than amounts of modification I which adversely effect the stability of modification III.
# True density (g cm^-3) ± 95% - c.i.
# [5] = system: sodium-potassium-2 chloride transport mechanism in the ascending limb of the loop of Henle; settings: cited from earlier work
# [6] = male versus female Wistar rats; P-450 oxidation products; cited from earlier work
# [7] = in vivo; cited from earlier work
# [8] = literature (Acta Cryst. 1978), cited from earlier work
# [9] = prior art (U.S. Re 34,672 and 34,580); listed as modification I; cited from earlier work
structure (smiles),measurement,setting,value
Cc1cccc(Nc2ccncc2S(=O)(=O)NC(=O)NC(C)C)c1 [Modification III],Serum concentration compared with modification I,[1]; 20 minutes after administration,more than twice the serum concentration as modification I
same,Serum concentration compared with modification I,[1]; 40 minutes after administration,almost twice the serum concentration as modification I
same,Appearance in the serum after oral administration,[1]; oral,rapid appearance
same,Stability of the crystal modification,[2],storage stable
same,Heat of transition ± 95% - C.B.,"[3]; at about 159° C., the difference of the heats of fusion, ± 2.1 printed on next line",-19.6 kcal/mol
same,Heat of fusion ± 95% - C.B.,[3]; listed as Mod. III,7.15 ± 0.22 kcal/mol
same,Heat of solution,Heat of solution; listed as Mod. III,7.12 kcal/mol
same,Diuretic effect,Diuretic effect,effective diuretic
same,Water content after storing in relative humidity of 92% at 25° C.,[4]; listed as Mod. III,1.2%
same,True density ± 95% - c.i.,True density; listed as Mod. III,1.302 ± 0.009 g cm^-3
same,True density ± 95% - c.i.,True density; listed as modification III,1.302±0.009 g cm^-3
"Cc1cccc(Nc2ccncc2S(=O)(=O)NC(=O)NC(C)C)c1 [Torasemide, 1-isopropyl-3-[(4-m-toluidino-3pyridyl)sulphonyl)urea]",Mechanism of action,[5],blocks the sodium-potassium-2 chloride transport mechanism in the ascending limb of the loop of Henle
same,Difference between male and female rats in excretion rate and metabolism,[6],significant differences
same,Diuresis profile compared with other standard loop diuretics,[7],less intense initial diuresis and a sustained duration of action
Cc1cccc(Nc2ccncc2S(=O)(=O)NC(=O)NC(C)C)c1 [Modification I],Heat of fusion ± 95% - C.B.,[3],8.89 ± 0.454 kcal/mol
same,True density,[8],about 1.36
same,Heat of solution,Heat of solution,8.63 kcal/mol
same,Water content after storing in relative humidity of 92% at 25° C.,[4]; listed as Mod. I,0.2%
same,Stability / rearrangement in tablets or on storage,[9],stable in tablets and did not rearrange again back into modification II
same,True density ± 95% - c.i.,True density; listed as Mod. I,1.363 ± 0.001 g cm^-3
Cc1cccc(Nc2ccncc2S(=O)(=O)NC(=O)NC(C)C)c1 [Modification II],True density,[8]; in g/cm3 (unit assumed),1.285
